This is an account of results in article PMC4787765 (Nucleic Acids Research, 2015).

The target in assay [1] is Chaetomium thermophilum eIF2Bα (Chaetomium thermophilum). The assay is described as follows: SEC-MALS.
In assay [2] the target is eIF2B(βδ)2 complex (Chaetomium thermophilum, untagged full-length subunits) (Chaetomium thermophilum). Briefly: SEC-MALS.
For assay [3], the target named is eIF2Bα (cteIF2Bα). The assay is described as follows: ITC. It counts as binding, Thermochaetoides thermophila.
Assay [4] addresses eIF2Bα (cteIF2Bα). Briefly: ITC. The class given is binding, Thermochaetoides thermophila. This is another data set of the same source.
Assay [5] deals with eIF2Bα (cteIF2Bα). Briefly: ITC. The class given is binding, Thermochaetoides thermophila. The source holds these as a separate data set.

Read-outs that look alike come from different tables or passages of the source.

Take “Chaetomium thermophilum eIF2Bα (natural protein)”: the stoichiometry N in assay [1] turned out to be 2; in assay [2], 1.

For `Nc1ncnc2c1ncn2[C@@H]1O[C@H](COP(=O)(O)O)[C@@H](O)[C@H]1O` [AMP], the Kd on eIF2Bα (cteIF2Bα) [3] came out at 10 µM.

On to `Nc1ccn([C@@H]2O[C@H](COP(=O)(O)O)[C@@H](O)[C@H]2O)c(=O)n1` [CMP], for which the affinity on eIF2Bα (cteIF2Bα) [4], expressed as Kd, was 65 µM.

On to `Nc1nc2c(ncn2[C@@H]2O[C@H](COP(=O)(O)O)[C@@H](O)[C@H]2O)c(=O)[nH]1` [GMP], for which the Kd on eIF2Bα (cteIF2Bα) [5] is 2.9 µM.
